# Data published in patent US8877785B2, “Methods and compositions for enhancing sensitivity of cytotoxic drugs with timely combinatorial therapy with carboxyamidotriazole orotate” (Tactical Therapeutics Inc, priority 2009, dated 2014).
# How the values were obtained:
# [1] = given in combination (CTO Q1Dx14, temozolomide Q4Dx3); MTD = dose without death and no more than 20% mean body weight loss
# Text: The purpose of the first experiment was to evaluate the tolerance of female athymic NCr-nu/nu mice to the combination treatment of 5-amino-1-(4-(4-chlorobenzoyl)-3,5-dichlorobenzyl)-1,2,3-triazole-4-carboxyamide orotate (CTO) and a cytotoxic chemotherapeutic agent selected from the group consisting of temozolomide, 5-FU, methotrexate, doxorubicin and daunorubicin.
# Polyethylene glycol (PEG 400, MW 400) was purchased from Aldrich Chemistry. Deionized water was purchased from LabChem, Inc. Klucel (hydroxypropyl cellulose) was purchased from Aldrich. Saline (physiological saline solution, for animal use only) was purchased from Nova-Teck, Inc. Tween 80 (T80, polysorbate 80) was purchased from Fisher Scientific. CTO (MW 580.76) was stored at room temperature protected from light upon receipt. CTO was formulated once a week (on Days 1 and 8) at a concentration of 51.3 mg/mL in 40% PEG 400 in deionized water. Temozolomide® (temozolomide, Schering Co., 20 mg/capsule) was prepared on each day treatment by adding several drops of T80 to the powder, and then adding 0.3% Klucel in saline to yield a concentration of 4.5 mg/mL.
# The study consisted of four groups of five mice per group for a total of 25 mice on Day 1. […]
# [2] = test system: human LOX IMVI melanoma xenografts; test: Antitumor activity against SC-implanted human LOX IMVI melanoma xenografts (experiment TTI-6A); type: in vivo, mice
# Text: The purpose of the experiment TTI-6A was to evaluate the antitumor activity of CTO when administered in combination with temozolomide against subcutaneously (SC)-implanted human LOX IMVI melanoma xenografts in female, athymic NCr-nu/nu mice. Female six-week-old athymic NCr-nu/nu mice were purchased from Charles River Laboratories (Wilmington, Mass.). Human LOX IMVI melanoma cells were maintained as an ascites passage. […] The day of tumor fragment implantation was designated as Day 0.
# (§1) CTO was administered to mice by exact individual animal's body weight on each day of treatment, with the injection volume being 0.1 mL/10 g body weight. temozolomide dosing formulations were administered to mice within 30 minutes of formulation by exact individual body weight on each day of treatment, with the injection volume being 0.2 mL/10 g body weight.
# The study consisted of nine groups of ten mice per group. Animals in Group 1 were treated with the CTO vehicle (40% PEG 400 in deionized water) on a Q1Dx14 schedule (Days 6-19) in combination with the temozolomide vehicle (0.3% Klucel in saline), which was administered on a Q4Dx3 schedule (Days 6, 10, and 14). Animals in Groups 2 and 3 were treated with CTO at doses of 513 and 342 mg/kg/dose, respectively, on a Q1Dx14 schedule. Animals in Groups 4 and 5 were treated with temozolomide at, doses of 90 and 60 mg/kg/dose, respectively, on a Q4Dx3 schedule. Animals in Groups 6 and 7 were treated with CTO on a Q1Dx14 schedule at doses of 513 and 342 mg/kg/dose, respectively, in combination with temozolomide which was administered at a dose of 90 mg/kg/dose on a Q4Dx3 schedule. Animals in Groups 8 and 9 were treated with CTO on a Q1Dx14 schedule at doses of 513 and 342 mg/kg/dose, respectively, in combination with temozolomide which was administered at a dose of 60 mg/kg/dose on a Q4Dx3 schedule.
# The SC tumors were measured and the animals were weighed two times a week. Tumor volume was determined by the formula for an ellipsoid sphere: L×W^2/2=mm^3, where L and W refer to the larger and smaller perpendicular dimensions collected at each measurement. The experiment was terminated on Day 35.
# Parameters Evaluated—Number of nonspecific deaths, number of complete tumor regressions, number of tumor-free survivors on Day 35, and the median time for the tumors to reach four tumor mass doublings were determined. Comparison of the median tumor weight in the treatment groups to the median tumor weight in the control group (T/C×100%) on Day 19 (the last day of treatment with CTO and the last day of data collection when mice in the control group were still alive) was used for an additional evaluation of the antitumor efficacy of the combination treatments. […] FIG. 1.
# [3] = Body weight loss and deaths in LOX IMVI tumor-bearing athymic NCr-nu/nu mice (experiment TTI-6A); type: in vivo
# Text: The purpose of the experiment TTI-6A was to evaluate the antitumor activity of CTO when administered in combination with temozolomide against subcutaneously (SC)-implanted human LOX IMVI melanoma xenografts in female, athymic NCr-nu/nu mice. Female six-week-old athymic NCr-nu/nu mice were purchased from Charles River Laboratories (Wilmington, Mass.). Human LOX IMVI melanoma cells were maintained as an ascites passage. Each mouse was implanted SC near the right flank with one million (1×10^6) of the LOX IMVI human melanoma cell from an in vivo passage using a 23 g needle. The day of tumor fragment implantation was designated as Day 0. Individual tumors of 90 animals grew to 126-198 mg in weight (126-198 mm^3 in size) on Day 6 after tumor implantation (Jul. 20, 2011), the day of treatment initiation. Those animals selected with tumors in the proper size range were assigned to nine treatment groups so that the mean tumor weights in all groups on Day 6 were as close to each other as possible (mean tumor weights being 165 or 166 mg, median tumor weights ranging from 162 to 176 mg).
# as §1
# The study consisted of nine groups of ten mice per group. […]
# The SC tumors were measured and the animals were weighed two times a week. Tumor volume was determined by the formula for an ellipsoid sphere: L×W^2/2=mm^3, where L and W refer to the larger and smaller perpendicular dimensions collected at each measurement. […]
# Parameters Evaluated—Number of nonspecific deaths, number of complete tumor regressions, number of tumor-free survivors on Day 35, and the median time for the tumors to reach four tumor mass doublings were determined. […]
# [4] = Group 4: temozolomide 90 mg/kg/dose oral Q4Dx3 alone
# [5] = Group 5: temozolomide 60 mg/kg/dose oral Q4Dx3 alone
Molecule,maximum tolerated dose (MTD) [1],inhibition of the growth of the human LOX IMVI melanoma xenografts (in words) ([2]; CTO 513 or 342 mg/kg/dose oral for fourteen consecutive days),median tumor growth delay ([2]; Group 2: CTO 513 mg/kg/dose Q1Dx14 alone),T/C value (median tumor weight treated/control x100%) on Day 19 ([2]; Group 2: CTO 513 mg/kg/dose oral Q1Dx14 alone),median tumor growth delay ([2]; Group 3: CTO 342 mg/kg/dose Q1Dx14 alone),T/C value (median tumor weight treated/control x100%) on Day 19 ([2]; Group 3: CTO 342 mg/kg/dose oral Q1Dx14 alone),"maximum mean body weight loss [3, 4]","maximum mean body weight loss [3, 5]","maximum mean body weight loss ([3]; Groups 4 and 5: temozolomide 90 and 60 mg/kg/dose oral Q4Dx3 alone, both groups)",delay in the growth of the median tumor ([2]; Group 4: temozolomide 90 mg/kg/dose Q4Dx3 alone),"T/C value (median tumor weight treated/control x100%) on Day 19 [2, 4]","median time for the tumor to reach four tumor mass doublings [2, 4]",delay in the growth of the median tumor ([2]; Group 5: temozolomide 60 mg/kg/dose Q4Dx3 alone),"T/C value (median tumor weight treated/control x100%) on Day 19 [2, 5]","median time for the tumor to reach four tumor mass doublings [2, 5]"
"5-amino-1-(4-(4-chlorobenzoyl)-3,5-dichlorobenzyl)-1,2,3-triazole-4-carboxyamide orotate [CTO]",above 513 mg/kg/dose,measurable inhibition,3.1 days,65%,1.6 days,70%,,,,,,,,,
Cn1nnc2c(C(N)=O)ncn2c1=O [temozolomide],> 90 mg/kg/dose,,,,,,7%,7%,1.6 to 1.8 g,8.5 days,36%,17.2 days,3.6 days,57%,12.3 days
